The values that follow come from patent publication US5554644A, “Tachykinin (NK2) antagonists” (Warner-Lambert Company, priority 1994, dated 1996).

One experiment addresses T1, NK2 receptor (Mesocricetus auratus, UniProt P51144).
T1 construct: to hamster urinary bladder membranes; from tissue; host or cells: hamster urinary bladder membranes
T1 sequence (P51144 1-384): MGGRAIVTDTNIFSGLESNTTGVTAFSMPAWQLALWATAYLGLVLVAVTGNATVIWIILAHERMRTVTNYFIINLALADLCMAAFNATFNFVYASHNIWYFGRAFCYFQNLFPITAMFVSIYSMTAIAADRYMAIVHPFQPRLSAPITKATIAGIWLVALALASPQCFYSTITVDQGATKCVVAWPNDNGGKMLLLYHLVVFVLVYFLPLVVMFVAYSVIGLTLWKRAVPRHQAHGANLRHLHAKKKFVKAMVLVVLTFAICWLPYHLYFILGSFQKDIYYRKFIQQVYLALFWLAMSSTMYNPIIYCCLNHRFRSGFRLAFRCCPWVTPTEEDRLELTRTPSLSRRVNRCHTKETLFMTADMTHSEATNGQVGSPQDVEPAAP
Description: NK2 receptor binding: binding of [^125 I]-iodohistidyl neurokinin A (0.1 nM) to hamster urinary bladder membranes. The protocol:
Some of the compounds of the invention were evaluated in tachykinin binding assays.
For the NK2 receptor-measurement of the binding of [^125 I]-iodohistidyl neurokinin A (0.1 nM) to hamster urinary bladder membranes. See Buck and Shatzer, Life Sci., 42:2701 (1988).

The test system of another experiment is NK1 receptor. The following applies: cited from earlier work; for antagonists at the NK1 receptor: nonpeptide antagonists.
For a further experiment, the system named is NK2 receptors. Particulars: cited from earlier work.

pIC50: −log10 of the molar value.

On NK2 receptor, `COc1cccc(COC(=O)NC(Cc2c[nH]c3ccccc23)C(=O)NC(C)(Cc2ccccc2)C(O)CCCO)c1OC` (single isomer, unassigned) [Compound XX, Carbamic acid, [2-[[2,5-dihydroxy-1-methyl-1-(phenylmethyl)pentyl]amino]-1-(1H-indol-3-ylmethyl)-2-oxoethyl]-, (2,3-dimethoxyphenyl)methyl ester] showed a negative-log IC50 (pIC50) of 6.44.

On to `COc1cccc(COC(=O)NC(Cc2c[nH]c3ccccc23)C(=O)NC(C)(Cc2ccccc2)C(O)CCCO)c1OC` (single isomer, unassigned) [Compound XXI, Carbamic acid, [2-[[2,5-dihydroxy-1-methyl-1-(phenylmethyl)pentyl]amino]-1-(1H-indol-3-ylmethyl)-2-oxoethyl]-, (2,3-dimethoxyphenyl)methyl ester], for which, on NK2 receptor, the negative logarithm of the IC50 (pIC50) was 6.48. This pIC50 and that of the compound before are within 0.2 log units of each other.

In the case of `COc1ccccc1CN[C@H]1C2CCN(CC2)[C@H]1C(c1ccccc1)c1ccccc1` [CP-96,345], in the experiment on NK1 receptor, the “antagonists at the NK1 receptor” value is given as “antagonists at the NK1 receptor”.

On NK2 receptor, `COc1cccc(COC(=O)N[C@@H](Cc2c[nH]c3ccccc23)C(=O)N[C@@](C)(Cc2ccccc2)C(=O)OCCO)c1OC` [Compound IV, L-Phenylalanine, N-[N-[[(2,3-dimethoxyphenyl)methoxy]carbonyl]L-tryptophyl]-α-methyl- , 2-hydroxyethyl ester] gave a negative-log IC50 (pIC50) of 6.82.

`COc1cccc(COC(=O)N[C@@H](Cc2c[nH]c3ccccc23)C(=O)N[C@@](C)(Cc2ccccc2)C(=O)N(C)CCO)c1OC` [Compound VII, L-Phenylalaninamide, N-[[(2,3-dimethoxyphenyl)methoxy]-carbonyl]-L-tryptophyl-N-(2-hydroxyethyl)-N,α-dimethyl] had a negative-log IC50 (pIC50) at NK2 receptor of less than 5.00.

With `COc1cccc(COC(=O)N[C@@H](Cc2c[nH]c3ccccc23)C(=O)N[C@](C)(COCCO)Cc2ccccc2)c1OC` [Compound XII, Carbamic acid, [2-[[1-[(2-hydroxyethoxy)methyl]-1-methyl-2-phenylethyl]amino]-1-(1H-indol-3-ylmethyl)-2-oxoethyl]-, (2,3-dimethoxyphenyl)methyl ester, [S-(R*, R*)]-.], at NK2 receptor, the negative logarithm of the IC50 (pIC50) was 6.60.

`COc1ccccc1CC(=N)N1C[C@@H]2C(=O)CCC(c3ccccc3)(c3ccccc3)[C@@H]2C1` [RP 67580]: in the experiment with NK1 receptor, the “antagonists at the NK1 receptor” value is reported as “antagonists at the NK1 receptor”.

Consider `CC(=O)NC1(c2ccccc2)CCN(CC[C@H](CN(C)C(=O)c2ccccc2)c2ccc(Cl)c(Cl)c2)CC1` [SR 48969], for which the “affinity and selectivity for NK2 receptors” value in the experiment on NK2 receptors was “high affinity and selectivity for NK2 receptors”.

At NK2 receptor, `COc1cccc(COC(=O)N[C@@H](Cc2c[nH]c3ccccc23)C(=O)N[C@@](C)(Cc2ccccc2)C(=O)CCCO)c1OC` [XXVI, Carbamic acid, [2-[[5-hydroxy-1-methyl-2-oxo-1-(phenylmethyl)pentyl]amino]-1-(1H-indol-3-ylmethyl)-2-oxoethyl]-, (2,3-dimethoxyphenyl)methyl ester] gave a negative-log IC50 (pIC50) of 7.66.

On to substance-P, for which the “affinity for NK1 receptors” value in the experiment on NK1 receptor is reported as “highest affinity for NK1 receptors”.

For orientation: pIC50 means the IC50 on a negative log10 scale, so that one unit is a factor of ten.
